Experimental data reported in patent US9856534B2, “Selecting use of proteasome inhibitors based on NF-κB2 sequence” (Emory University, priority 2011, dated 2018).

Experiments:
Format in all cases: cell-based
[1] = tested on: KMS11; assay: Bortezomib sensitivity of MM cell line KMS11
[2] = tested on: RPMI; assay: Bortezomib sensitivity of MM cell line RPMI
[3] = tested on: OPM and KMS11 multiple myeloma cell lines; assay: Live cell count (Yo-pro-1 iodide/PI negative) in MM cell lines stably expressing NF-κB2 constructs, treated with bortezomib; conditions: titrating doses, 24 hours; live cells
Experimental: A) Two multiple myeloma cell lines, OPM and KMS11, stably expressing the full length NF-κB2 (p100), NF-κB2-ankyrin domains, NF-κB2-death domain were generated using a pLenti6.2/V5-DEST lentivirus. Cells were then treated at titrating doses of bortezomib. After 24 hours the cells were harvested and stained with Yo-pro-1 iodide and propidium Iodide (PI, both from Invitrogen, Grand Island, N.Y.). Live cells were measured using a ImageXpress 5000A Automated Acquisition and Analysis System (Molecular Devices, Sunnyvale, Calif.), quantitating for Yo-pro-1 iodide and PI negative cells. B) OPM1 and RPMI cells stably expressing NF-κB2 (p100), NF-κB2-ankyrin domains or control vector (LacZ) were treated with 10 nM of bortezomib for 24 hours. Cells were harvested and Western blot was performed to assay for caspase 9, cleaved caspase 9 and 3 and actin.
For apoptosis studies, 10^4 cells were treated with titrating doses of doxorubicin (doses: […], Sigma) or rituximab (titrating doses: 1.5, 2.5, 5, 10 and 20 μg/mL, Biogen Idec Inc). Twenty four hours later cells were stained with Yo-pro-1 and Propidium Iodide (Invitrogen). Live cells were measured using a ImageXpress 5000A Automated Acquisition and Analysis System (Molecular Devices, Sunnyvale, Calif.), quantitating for Yo-pro-1 or PI negative cells.
Sequences of NF-κB2-shRNA are known. […]

[4] = tested on: Daudi and Raji lymphoma cell lines; assay: Apoptosis by flow cytometry (Annexin V) in lymphoma cell lines expressing p100 siRNA, treated with bortezomib
Experimental: (A) Two lymphoma cell lines, Daudi and Raji, expressing a p100 or a p105 siRNA were treated with titrating doses of bortezomib for 24 hours. […] Expression of p100 siRNA in two lymphoma cell lines, Daudi and Raji, reduce the protein levels of cleaved caspase 3 and 9. Western blot of Daudi and Raji cell lines expression p100 siRNA or luciferase were performed after 24 hours of treatment with titrating does of bortezomib.
Sequences of NF-κB2-shRNA are known. The sense shRNA oligonucleotide probes were as follows: p100, […] (SEQ ID NO: 12). Luciferase (Luc) shRNA plasmid was provided by S. Stewart. Short interfering hairpin RNA were expressed under U6 human promoter and were generated using PLKopuro.1. NF-κB2, NF-κB2-ankirin repeats region, NF-κB2-death domain and LcZ (control) were expressed under a CMV promoter and generated using a pLenti6/V5-DEST (Invitrogen Life Technologies). Recombinant lentiviruses were generated in 293T cells, for infection of all MM cell lines. Stable cell lines expressing shRNAs or the protein of interest were obtained after selecting cells with 2 μg/mL puromycin or 10 μg/mL, respectively. Cells were used for experiments two weeks after infection.

[5] = tested on: NF-κB; assay: NF-κB-luciferase reporter assay; conditions: Daudi and SC lymphoma cell lines; titrating doses, 24 hours
Experimental: Daudi and SC cell lines were transfected with a NF-κB-luciferase reporter construct (1 μg of DNA). Twenty four hours post-transfection, cells were treated with titrating doses of bortezomib. After 24 hours of treatment, cells were harvested and lysed with RIPA buffer. Twenty microliters of the lysate were mixed with Luciferase assay substrate (Promega, Madison, Wis.) followed by Stop & Glo reagent. Luciferase activity was then measured in a luminometer.

Compound: CC(C)C[C@H](NC(=O)[C@H](Cc1ccccc1)NC(=O)c1cnccn1)B(O)O [bortezomib]
- bortezomib sensitivity of cell line [1]: resistant
- bortezomib sensitivity of cell line [2]: resistant
- sensitivity to bortezomib on expression of p100 (NF-κB2), NF-κB2-ankyrin domains and NF-κB2-death domain [3]: restores sensitivity
- bortezomib sensitivity of lymphoma cells [4]: sensitive
- bortezomib-induced apoptosis on p100 siRNA expression ([4]; titrating doses, 24 hours, Annexin V): reduces
- effect on NF-kB luciferase reporter activity [5]: NF-kB inhibitory effects
